The text below walks through data of US7084136B2, “Drug composition antagonistic to both PGD2/TXA2 receptors” (Shionogi & Co., Ltd., priority 2000, dated 2006).

Data set [1] has as its target T1, TXA2 receptor (Homo sapiens, UniProt P21731).
T1 construct: The human platelet membrane fraction was prepared in accordance with Experiment 1 (1); from tissue; host or cells: human platelet membrane fraction from blood of healthy volunteers
T1 sequence (P21731 1-343): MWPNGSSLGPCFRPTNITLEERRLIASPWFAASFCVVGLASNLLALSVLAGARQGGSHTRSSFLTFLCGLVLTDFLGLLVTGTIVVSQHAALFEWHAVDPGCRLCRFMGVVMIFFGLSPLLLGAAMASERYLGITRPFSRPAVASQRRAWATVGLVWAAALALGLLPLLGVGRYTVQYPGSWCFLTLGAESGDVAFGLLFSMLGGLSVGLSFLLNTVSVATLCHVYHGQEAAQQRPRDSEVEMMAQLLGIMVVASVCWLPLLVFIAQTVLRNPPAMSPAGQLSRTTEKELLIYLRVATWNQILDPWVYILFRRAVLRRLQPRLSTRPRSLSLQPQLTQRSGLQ
Put plainly: Binding activity to TXA2 receptor ([3H](+)-S-145 sodium salt, human platelet membrane fraction). The note with it: human platelet membrane fraction; 2 nM [3H](+)-S-145 sodium salt; read-out: Binding activity to TXA2 receptor in human platelet membrane fraction IC50. On the procedure:
Experiment 2 Binding Activity to TXA2 Receptor
(§1) (1) Preparation of Human Platelet Membrane Fraction
The human platelet membrane fraction was prepared in accordance with Experiment 1 (1).
(2) Binding to TXA2 Receptor
To a binding-reaction solution (50 mM Tris/HCl, pH 7.4, 10 mM MgCl2) (0.2 ml) were added the human platelet membrane fraction (0.05 mg) and 2 nM Sodium [^3H](+)-(5Z)-7-[3-endo-[(phenylsulfonyl)amino]bicyclo[2.2.1]hept-2-exo-yl]heptenoate (Japanese Patent Publication (Kokoku) No.79060/1993, hereinafter referred to as (+)-S-145 sodium salt) (26.4 Ci/mmol), and the mixture was reacted at room temperature for 90 min. After the reaction, the resultant mixture was filtered through a glass fiber filter paper and washed several times with cooled physiological saline, then the radioactivity retained on the filter paper was measured. The specific-binding ratio was calculated by subtracting the non-specific binding ratio (the radio activity similarly determined in the presence of 10 μM (+)-S-145 sodium salt) from the total binding. The inhibitory activity of each compound was expressed as the concentration required for 50% inhibition (IC50), which was determined by depicting a substitution curve by plotting the binding ratio (%) in the presence of each compound, where the binding ratio in the absence of a test compound is 100%.

The nature of data set [2]: Change of plasma concentration of drug in rat (half life of the disappearance after i.v. administration). The format is in vivo. The note with it: Jcl-SD male rats, 0.5 to 2 mg/kg intravenously, unchanged compound. As for the experimental part: Experiment 4 Change of Plasma Concentration of Drug in Rat
Compound (0.5 to 2 mg/kg) was administered intravenously to Jcl-SD male rats.

Data set [3] concerns the target T2, PGD2 receptor (Homo sapiens, UniProt Q13258).
T2 construct: A suspension adjusted to contain the platelets at a final concentration of 5×10^8/ml was warmed at 37° C; endogenous in cells; host or cells: washed human platelets from a healthy volunteer
T2 sequence (Q13258 1-359): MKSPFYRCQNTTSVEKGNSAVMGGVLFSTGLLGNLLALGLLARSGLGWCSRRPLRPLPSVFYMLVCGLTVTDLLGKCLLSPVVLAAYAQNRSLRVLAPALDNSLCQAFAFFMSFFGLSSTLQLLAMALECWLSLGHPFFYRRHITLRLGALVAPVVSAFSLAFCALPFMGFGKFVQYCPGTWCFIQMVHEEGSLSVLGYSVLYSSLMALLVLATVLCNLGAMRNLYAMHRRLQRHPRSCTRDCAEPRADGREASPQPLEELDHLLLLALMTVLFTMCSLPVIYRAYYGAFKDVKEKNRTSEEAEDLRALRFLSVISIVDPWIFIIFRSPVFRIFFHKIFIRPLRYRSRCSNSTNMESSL
Put plainly: Antagonistic activity against PGD2 receptor using human platelet (inhibition of PGD2-induced cAMP increase). The format is cell-based. As to conditions: human platelet; 0.1 μM PGD2; read-out: Inhibitory activity for the increase of cAMP caused by PGD2 in human platelet IC50. On the procedure:
Experiment 3 Evaluation of Antagonistic Activity Against PGD2 Receptor
Receptor Using Human Platelet
Peripheral blood was collected from a healthy volunteer using a syringe in which 1/9 volume of a citric acid/dextrose solution was previously added. The sample was subjected to centrifugation at 1200 rpm for 10 min to obtain the supernatant (PRP: platelet rich plasma). The resultant PRP was washed 3 times with a washing buffer and the number of platelets was counted with a micro cell counter. A suspension adjusted to contain the platelets at a final concentration of 5×10^8/ml was warmed at 37° C., then subjected to the pre-treatment with 3-isobutyl-1-methylxanthine (0.5 mM) for 5 min. To the suspension was added a test compound diluted at various concentration, and 10 minutes later, 0.1 μM PGD2 was added to induce the reaction 2 minutes later, hydrochloric acid was added to terminate the reaction. The platelet was destroyed with an ultrasonic homogenizer. After centrifugation, the cAMP in the supernatant was determined by radioimmunoassay. PGD2 receptor antagonism of a drug was evaluated as follows: the inhibition rate regarding cAMP increased by the addition of PGD2 was determined at each concentration, and the concentration of the drug required for 50% inhibition (IC50) was calculated.

The target in data set [4] is T2, PGD2 receptor. Put plainly: Binding activity to PGD2 receptor ([3H]PGD2, human platelet membrane fraction). As to conditions: human platelet membrane fraction; read-out: Binding activity to PGD2 receptor in human platelet membrane fraction IC50. As for the experimental part:
Experiment 1 Binding Activity to PGD2 Receptor
as §1
Blood was collected using a plastic syringe containing 3.8% sodium citrate from the vein of healthy volunteers (adult male and female), then put into a plastic test tube and mixed by slow-reversion. The sample was then centrifuged at 1800 rpm, for 10 min at room temperature, and the supernatant containing PRP (platelet-rich plasma) was collected. The PRP was re-centrifuged at 2300 rpm, for 22 min at room temperature to obtain platelets. The platelets were homogenized using a homogenizer (Ultra-Turrax) followed by centrifugation 3 times at 20,000 rpm, 10 min at 4° C. to obtain a platelet membrane fraction. After protein determination, the membrane fraction was adjusted to 2 mg/ml and preserved in a refrigerator at −80° C. until using for the binding test.
(2) Binding to PGD2 Receptor
To a binding-reaction solution (50 mM Tris/HCl, pH 7.4, 5 mM MgCl2) (0.2 ml) were added the human platelet membrane fraction (0.1 mg) and 5 nM [^3H]PGD2 (115 Ci/mmol), and the mixture was reacted at 4° C. for 90 min. After the reaction, the mixture was filtered through a glass fiber filter paper and washed several times with cooled physiological saline, then the radioactivity retained on the filter paper was measured. The specific-binding ratio was calculated by subtracting the non-specific binding ratio which is the radioactivity similarly measured in the presence of 10 μM PGD2 from the total binding. The inhibitory activity of each compound was expressed as the concentration required for 50% inhibition (IC50), which was determined by depicting a substitution curve by plotting the binding ratio (%) in the presence of each compound, where the binding ratio in the absence of a test compound is 100%.

A word on the IC50: it is the concentration that gives 50% inhibition. In the case of `O=C(O)CCC/C=C\C[C@H]1[C@@H]2CC[C@@H](C2)[C@@H]1NC(=O)c1csc2c(Cc3ccccc3)cccc12` [I-143], the IC50 in data set [1] is 28 nM; in data set [3], 1.9 nM; in data set [4], 2.7 nM. Besides, the “half life of the disappearance” value in data set [2] is listed as 4.7 min.

Take `CC1(C)[C@H]2C[C@H](C/C=C\CCCC(=O)O)[C@@H](NC(=O)c3ccc(Sc4cccs4)s3)[C@@H]1C2` [II-59]: the results for the IC50 in data set [1], in data set [3] and in data set [4] were 14 nM, 24 nM and 0.1 nM, respectively. Moreover, the “half life of the disappearance” value in data set [2] was 11.0 min.
